Assay results from ChEMBL document CHEMBL1133253, “Improved antibacterial activities of coumarin antibiotics bearing 5',5'-dialkylnoviose: biological activity of RU79115” (Bioorg Med Chem Lett, 2000).
In brackets after ≈: the same amount, converted by molar mass.

Assays:
Staphylococcus aureus [1] = test: Tested for in vitro antibacterial activity against Staphylococcus aureus 011 HT3 phenotype; format: functional
Staphylococcus aureus [2] = test: Tested for in vitro antibacterial activity against Staphylococcus aureus 011 GO64 ofloxacin oxacillin erythromycin resistance phenotype; format: functional
Staphylococcus aureus [3] = test: IC50 was determined for gyrase B of Staphylococcus aureus against novobiocin (0.5 mg/mL) as reference; IC50nov/IC50comp
Enterococcus faecium = test: Tested for in vitro antibacterial activity against Enterococcus faecium 02D31P2 vancomycin teicoplanin erythromycin resistance phenotype; format: functional
Streptococcus pyogenes = test: Tested for in vitro antibacterial activity against Streptococcus pyogenes O2A1UC1 phenotype; format: functional
Staphylococcus aureus [4] = test: Tested for in vitro antibacterial activity against Staphylococcus aureus 011 HT1 novobiocin resistance phenotype; format: functional
[5] = test system: Staphylococcus epidermidis; test: Tested for in vitro antibacterial activity against Staphylococcus epidermidis 012GO42 oxacillin resistance phenotype; format: functional

For `C#CCONC(=O)O[C@H]1[C@@H](O)[C@H](Oc2ccc3c(=O)c(/C(C)=N/OC)c(O)oc3c2C)O[C@@](C)(C=C)[C@@H]1OC`, the MIC (Staphylococcus aureus [1]) was < 0.04 µg/mL, the MIC (Staphylococcus aureus [2]) was 0.3 µg/mL (≈ 0.549 µM) and the Ratio (Staphylococcus aureus [3]) was 2.6. The MIC (Enterococcus faecium) was 1.2 µg/mL (≈ 2.2 µM), the MIC (Streptococcus pyogenes) was 1.2 µg/mL (≈ 2.2 µM) and the MIC (Staphylococcus aureus [4]) was 2.5 µg/mL (≈ 4.57 µM). The MIC [5] was 0.15 µg/mL (≈ 0.274 µM).
For `C#CCONC(=O)O[C@H]1[C@@H](O)[C@H](Oc2ccc3c(O)c(/C(C)=N/OC)c(=O)oc3c2C)O[C@@](C)(CC)[C@@H]1OC`, the MIC (Staphylococcus aureus [1]) was < 0.04 µg/mL, the Ratio (Staphylococcus aureus [3]) was 11.1 and the MIC (Enterococcus faecium) was 0.15 µg/mL (≈ 0.273 µM). The MIC (Streptococcus pyogenes) was 0.08 µg/mL (≈ 0.146 µM), the MIC (Staphylococcus aureus [4]) was 0.3 µg/mL (≈ 0.547 µM) and the MIC [5] was < 0.04 µg/mL.
With `C#CCONC(=O)O[C@H]1[C@@H](O)[C@H](Oc2ccc3c(=O)c(/C(C)=N/OC)c(O)oc3c2C)OC(C)(C)[C@@H]1OC` the MIC (Staphylococcus aureus [1]) was 0.16 µg/mL (≈ 0.299 µM), the MIC (Staphylococcus aureus [2]) was 0.16 µg/mL (≈ 0.299 µM) and the Ratio (Staphylococcus aureus [3]) was 12.5. The MIC (Enterococcus faecium) was 2.5 µg/mL (≈ 4.68 µM), the MIC (Streptococcus pyogenes) was 0.6 µg/mL (≈ 1.12 µM) and the MIC (Staphylococcus aureus [4]) was 5 µg/mL (≈ 9.35 µM). For the same molecule, the MIC [5] was 0.08 µg/mL (≈ 0.15 µM).
